Laboratory results: EP1734031A1, “NOVEL 2-(ALPHA-N-PENTANONYL)BENZOETES, THEIR PREPARATION AND USE” (priority 2004, dated 2005)

How the values were obtained:
in vivo = conditions: both, ICR, mouse, po
[1] = tested on: model rats of middle cerebral artery thrombosis (MCAT); assay: Effects on cerebral infarct area of MCAT rats (TTC staining); type: in vivo, SD rats; conditions: for Cerebral infarct tissue weight/total brain weight: 24 hours after operation; for Inhibition (cerebral infarct): vs. model group
[2] = tested on: model rats of middle cerebral artery thrombosis (MCAT); assay: Effects on neural symptoms of MCAT rats (behavioral score); type: in vivo, SD rats; conditions: for Scores 6 hours: 6 hours after operation; for Scores 6 hours / Scores 24 hours: full mark 4; for Scores 24 hours: 24 hours after operation; for % inhibition at hour 24: vs. model group
[3] = Stability to humidity (high humidity test, purity by HPLC); type: physicochemical; conditions: 10 days
[4] = tested on: thrombosis of artery-vein bypass in rats; assay: Effects on thrombosis of artery-vein bypass in rats; type: in vivo, SD rats; conditions: for Dry-weight of thrombus / Wet-weight of thrombus: once per day for 3 days; for Inhibition (dry-weight of thrombus) / Inhibition (wet-weight of thrombus): vs. thrombus model group
ICR mice = conditions: mouse, in vivo, po, 168 h
[5] = Thermal stability (purity by HPLC); conditions: 10 days at 60°C
Experimental: Tests were conducted for 10 days at 60°C in accordance with the testing method as described in Pharmacopoeia of P.R. China, 2000 ed., appendix XIX C of part two, "Guideline for testing the stability of medicament: method for testing thermal stability". The purity was determined in accordance with the test described in Pharmacopoeia of P.R. China, 2000 ed., appendix VD of part two, by using HPLC method, C18 column, mobile phase of acetonitrile:0.02M sodium dihydrogen phosphate = 40:60, detecting wavelength of 230 nm, flow rate of 1 ml/min.

[6] = Stability to light (purity by HPLC); conditions: light test, 10 days
Experimental: Tests were conducted for 10 days in accordance with the testing method as described in Pharmacopoeia of P.R. China, 2000 ed., appendix XIX C of part two, "Guideline for testing the stability of medicament: method for testing stability to light". The purity was determined in accordance with the test described in Pharmacopoeia of P.R. China, 2000 ed., appendix VD of part two, by using HPLC method, C18 column, mobile phase of acetonitrile:0.02M sodium dihydrogen phosphate = 40:60, detecting wavelength of 230 nm, flow rate of 1 ml/min.

| SMILES | Cerebral infarct tissue weight/total brain weight ([1]; 50 mg/kg by gavage) | Inhibition (cerebral infarct) ([1]; 50 mg/kg by gavage) | Cerebral infarct tissue weight/total brain weight ([1]; 100 mg/kg by gavage) | Inhibition (cerebral infarct) ([1]; 100 mg/kg by gavage) | Cerebral infarct tissue weight/total brain weight ([1]; 200 mg/kg by gavage) | Inhibition (cerebral infarct) ([1]; 200 mg/kg by gavage) | Scores 6 hours ([2]; 50 mg/kg by gavage) | Scores 24 hours ([2]; 50 mg/kg by gavage) | Scores 6 hours ([2]; 100 mg/kg by gavage) | Scores 24 hours ([2]; 100 mg/kg by gavage) | Scores 6 hours ([2]; 200 mg/kg by gavage) | Scores 24 hours ([2]; 200 mg/kg by gavage) | also measured |
| --- | --- | --- | --- | --- | --- | --- | --- | --- | --- | --- | --- | --- | --- |
| CCCCC(O)c1ccccc1C(=O)[O-].[K+] (stereo not drawn) [Potassium 2-(α-hydroxypentyl)benzoate] | 6.16±2.46% | 16.87% | 5.73±2.20 % | 27.83% | 5.37±2.00 % | 29.43% | 3.50±0.71 | 3.30±0.48 | 3.55±0.52 | 3.00±0.89 | 3.45±0.52 | 2.73±0.79 | LD50 at 7 days (in vivo): 1230 mg/kg; % inhibition at hour 24 ([2]; 50 mg/kg by gavage): 9.34%; % inhibition at hour 24 ([2]; 100 mg/kg by gavage): 19.57%; % inhibition at hour 24 ([2]; 200 mg/kg by gavage): 26.81%; decomposition after absorbing moisture [3]: highly decomposed |
| CCCCC(=O)c1ccccc1C(=O)O.CCCCC(=O)c1ccccc1C(=O)O.c1ccc(CNCCNCc2ccccc2)cc1 [2-(α-n-pentanonyl)benzoate of N,N'-dibenzylethylene diamine] | 5.14±2.17 % | 30.63% | 4.68±1.69 % | 41.06% | 4.60±1.26 % | 39.55% | 3.45±0.69 | 2.91±0.70 | 3.45±0.52 | 2.36±0.67 | 3.27±0.79 | 2.55±0.52 | Dry-weight of thrombus ([4]; 50 mg/kg by gavage): 39.0 ± 10.8 mg; Wet-weight of thrombus ([4]; 50 mg/kg by gavage): 207.1 ± 45.3 mg; Inhibition (dry-weight of thrombus) ([4]; 50 mg/kg): 23.98%; Inhibition (wet-weight of thrombus) ([4]; 50 mg/kg): 20.10%; Dry-weight of thrombus ([4]; 100 mg/kg by gavage): 29.9 ± 13.6 mg; Wet-weight of thrombus ([4]; 100 mg/kg by gavage): 157.9 ± 67.9 mg; Inhibition (dry-weight of thrombus) ([4]; 100 mg/kg): 41.72%; Inhibition (wet-weight of thrombus) ([4]; 100 mg/kg): 39.08%; Dry-weight of thrombus ([4]; 200 mg/kg by gavage): 32.3 ± 12.5 mg; Wet-weight of thrombus ([4]; 200 mg/kg by gavage): 191.7 ± 34.8 mg; Inhibition (dry-weight of thrombus) ([4]; 200 mg/kg): 37.04%; Inhibition (wet-weight of thrombus) ([4]; 200 mg/kg): 26.04%; LD50 value (ICR mice): 3.0788 g/kg; cerebral infarct compared with the model group (in words) ([1]; 50 mg/kg, P<0.05): significantly reduced; decomposed product (thermal stability) [5]: no decomposed product; decomposed product (stability to light) [6]: no decomposed product |
